Patent US20220186240A1, “FLAVONE 7-O-METHYLTRANSFERASE GENE AND USE FOR SAME” (Suntory Holdings Limited, priority 2019, published 2022)

Legend:
[1] = test system: DN134067 (CcFn-7OMT, flavone 7-O-methyltransferase); experiment: Enzyme activity measurement with crude protein solution extract from E. coli expressing DN134067, HPLC of reaction solution; format: biochemical, oboushibana (Commelina communis var. hortensis); settings: for peak detected in the enzyme reaction solution / Enzyme reaction synthesis product: compound as substrate; for peak detected in the enzyme reaction solution: HPLC; for Enzyme reaction synthesis product: 30° C., SAM, ND = no product peak
From the text: With DN134067 as a candidate protein having activity of transferring a methyl group to the hydroxyl group at position 7 of flavone C-glycoside, and using pET15b (Novagen), an E. coli expression vector containing the full-length DN134067 (pET15b-DN134067) was constructed according to the manufacturer's recommended protocol.
Plasmid pET15b-DN134067 was introduced into E. coli BL21 using One Shot BL21(DE3) (Invitrogen), according to the manufacturer's recommended protocol, to obtain E. coli transformants. The E. coli were cultured using an Overnight Express Autoinduction System 1 (Novagen), according to the manufacturer's recommended protocol. The E. coli transformants were cultured at 37° C. (approximately 4 hours) with 2 ml of prepared culture solution, to an OD600 value of 0.5. The E. coli solution was added as a preculturing solution to 50 ml of culture solution, and main culturing was carried out for two nights at 16° C.
The E. coli solution cultured for two nights was centrifuged (3000 rpm, 4° C., 15 minutes), and the collected cells were suspended in sonic buffer (composition: 40 mM KPB (pH7.5), 1 mM dithiothreitol, 50 μM amidinophenylmethanesulfonyl fluoride hydrochloride, […], 2 mM MgCl2, 1 μM S-adenosylmethionine (SAM)). A 5 ml portion of sonic buffer was added for each 1 g of E. coli. The suspended E. coli cells were crushed by ultrasonic treatment and then centrifuged (15,000 rpm, 4° C., 10 minutes), and the supernatant was recovered. The supernatant was used as a crude protein solution extract from E. coli expressing DN134067. An Avanti HP-26XP (rotor: JA-2) (Beckman Coulter) was used for the centrifugation.
After mixing 8 μl of 1 mM isovitexin (dissolved in 50% aqueous acetonitrile containing 0.1% TFA), 20 μl of 10 mM SAM, 20 μl of 10 mM MgCl2 and 10 μl of 1 M KPB (pH 7.5) and adjusting to 58 μl with water, the mixture was kept at 30° C. for 10 minutes, and then 2 μl of the crude protein solution extract from DN134067-expressing E. coli was added and enzyme reaction was carried out (30 minutes at 30° C.). Next, 100 μl of stop buffer (aqueous 90% acetonitrile solution containing 0.1% TFA) was added to stop the enzyme reaction, and the enzyme reaction solution was analyzed by high-performance liquid chromatography (Prominence by Shimadzu Corp.). Detection was at 330 nm using a Shimadzu PDA SPD-M20A as the detector. The column used was a Shim-Pack ODS 150 mm*4.6 mm (Shimadzu Corp.). Elution was performed using solution A (0.1% TFA aqueous solution) and solution B (aqueous 90% acetonitrile solution containing 0.1% TFA). The elution was with a 20-minute linear concentration gradient from a 9:1 mixture to a 8:2 mixture, a 15-minute linear concentration gradient from a 8:2 mixture to a 2:8 mixture and a 5-minute linear concentration gradient from a 2:8 mixture to a 0:10 mixture, followed by elution with a 0:10 mixture for 1 minute. The flow rate was 0.6 ml/min. As a control, the same experiment was carried out using a crude protein solution extract from E. coli in which pET15b vector without the insert had been introduced.
When enzyme reaction was conducted using an anthocyanin (delphinidin 3-glycoside, petunidin 3-glycoside or delphinidin 3,5-diglycoside) as the substrate, the enzyme reaction conditions were 30° C., 15 minutes, and an aqueous 90% acetonitrile solution containing 0.1% TFA and 0.24 N hydrochloric acid was used as the stop buffer. A Shimadzu PDA SPD-M20A detector was used for detection at 520 nm during analysis of the enzyme reaction solution by high-performance liquid chromatography (Prominence (Shimadzu Corp.)). The column used was a Shodex RSpak DE-413 L (Shodex). Elution was performed using solution A (0.1% TFA aqueous solution) and solution B (aqueous 90% acetonitrile solution containing 0.1% TFA). Elution was performed with a 15-minute linear concentration gradient from an 8:2 mixture to a 0:10 mixture, and subsequent elution for 5 minutes with a 0:10 mixture. […]

[2] = Simulation of flavone C-glycoside (isoorientin, swertisin) copigment effect with malvin, absorption spectra; format: physicochemical; settings: for Absorption maximum of malvin solution with addition of flavone C-glycoside (λmax): flavone C-glycoside at 10-equivalent molar concentration, pH 5.0, malvin 0.5 mM
Experimental: An anthocyanin (malvin) and flavone C-glycoside were prepared to simulate the copigment effect of the flavone C-glycoside on malvin. The malvin (malvidin 3,5-diglycoside) and flavone C-glycosides (isoorientin, swertisin) used in this experiment were purchased from Nacalai Tesque, Inc.
Each flavone C-glycoside (isoorientin or swertisin) was added to the malvin at 10-equivalent molar concentration in a buffering solution at pH 5.0, and the absorption spectra were measured. The malvin concentration was 0.5 mM.
Addition of the flavone C-glycoside increased the absorbance of the malvin solution, shifting the absorption maximum (λmax) toward the long wavelength end. The absorption maximum was shifted further toward the long wavelength end with addition of swertisin than with isoorientin.

[3] = Simulation of flavone C-glycoside (isovitexin) copigment effect with anthocyanin, absorption spectra; format: physicochemical; settings: for Absorption maximum of anthocyanin solution with addition of flavone C-glycoside (λmax): pH 4.5, anthocyanin 0.5 mM
Experimental: An anthocyanin and flavone C-glycoside were prepared to simulate the copigment effect of flavone C-glycoside on anthocyanin. The malvin (malvidin 3,5-diglycoside) and isovitexin (apigenin 6-C-glycoside) used for the experiment were purchased from Funakoshi Corp.
The flavone C-glycoside (isovitexin) was added to the anthocyanin (malvin) at 0, 2 and 4-equivalent molar concentrations in a buffering solution at pH 4.5, and the absorption spectra were measured. The anthocyanin concentration was 0.5 mM.
Addition of the flavone C-glycoside increased the absorbance of the anthocyanin solution, shifting the absorption maximum (λmax) toward the long wavelength end with increasing addition of flavone C-glycoside.

Question: With `O=c1cc(-c2ccc(O)cc2)oc2cc(O)cc(O)c12` [Apigenin] as the molecule, how does the “peak detected in the enzyme reaction solution” value (“peak detected” below) [1] read?
Answer: The value was “no peak was detected in the enzyme reaction solution other than for the substrate”.

Question: Which “Absorption maximum of malvin solution with addition of flavone C-glycoside (λmax)” value [2] does the source give for `O=c1cc(-c2ccc(O)c(O)c2)oc2cc(O)c([C@@H]3O[C@H](CO)[C@@H](O)[C@H](O)[C@H]3O)c(O)c12` [Isoorientin, luteolin 6-C-glycoside] here?
Answer: The value was 575 nm.

Question: And the “Enzyme reaction synthesis product” value [1]?
Answer: Its value is “Swertiajaponin”.

Question: And the “peak detected” value [1]?
Answer: The value was “a peak was detected for swertiajaponin”.

Question: Which “copigment effect with malvin” value ([3]; pH 4.5, malvin 0.5 mM) does the source give for `O=c1cc(-c2ccc(O)cc2)oc2cc(O)c([C@@H]3O[C@H](CO)[C@@H](O)[C@H](O)[C@H]3O)c(O)c12` [Isovitexin, apigenin 6-C-glycoside] here?
Answer: Its value is “copigment effect of isovitexin is exhibited with malvin”.

Question: What about the “Enzyme reaction synthesis product” value [1] of the same molecule?
Answer: The value was “Swertisin”.

Question: And the “peak detected” value [1]?
Answer: Its value is “a peak for swertisin”.

Question: For `O=c1cc(-c2ccc(O)c(O)c2)oc2cc(O)cc(O)c12` [Luteolin], which “peak detected” value [1] is on record?
Answer: Its value is “no peak was detected in the enzyme reaction solution other than for the substrate”.

Question: Which “Absorption maximum of anthocyanin solution with addition of flavone C-glycoside (λmax)” value ([3]; 0 equivalent isovitexin) does the source give for `COc1cc(-c2[o+]c3cc(O)cc(O[C@@H]4O[C@H](CO)[C@@H](O)[C@H](O)[C@H]4O)c3cc2O[C@@H]2O[C@H](CO)[C@@H](O)[C@H](O)[C@H]2O)cc(OC)c1O` [Malvin, malvidin 3,5-diglycoside] here?
Answer: Its value is 531.8 nm.

Question: And the “Absorption maximum of anthocyanin solution with addition of flavone C-glycoside (λmax)” value ([3]; 2 equivalents isovitexin)?
Answer: The value was 566.4 nm.

Question: And the “Absorption maximum of anthocyanin solution with addition of flavone C-glycoside (λmax)” value ([3]; 4 equivalents isovitexin)?
Answer: The value was 573.0 nm.

Question: What about the “Absorption maximum of malvin solution (λmax)” value ([2]; malvin alone, pH 5.0, 0.5 mM) of the same molecule?
Answer: Its value is 529 nm.

Question: For `COc1cc2oc(-c3ccc(O)cc3)cc(=O)c2c(O)c1[C@@H]1O[C@H](CO)[C@@H](O)[C@H](O)[C@H]1O` [Swertisin, apigenin 7-methyl-6-C-glycoside], which “copigment effect with malvin” value ([2]; compared with isoorientin, 10 equivalents, pH 5.0) is on record?
Answer: Its value is “higher copigment effect with malvin”.

Question: And the “Absorption maximum of malvin solution with addition of flavone C-glycoside (λmax)” value [2]?
Answer: Its value is 579 nm.

Question: Which “peak detected” value [1] does the source give for Apigenin 4′-glycoside here?
Answer: The value was “no peak was detected in the enzyme reaction solution other than for the substrate”.

Question: Which “peak detected” value [1] does the source give for Delphinidin 3,5-diglycoside here?
Answer: The value was “no peak was detected in the enzyme reaction solution other than for the substrate”.

Question: For Delphinidin 3-glycoside, which “peak detected” value [1] is on record?
Answer: The value was “no peak was detected in the enzyme reaction solution other than for the substrate”.

Question: With Luteolin 4′-glycoside as the molecule, how does the “peak detected” value [1] read?
Answer: Its value is “no peak was detected in the enzyme reaction solution other than for the substrate”.

Question: For Petunidin 3-glycoside, which “peak detected” value [1] is on record?
Answer: The value was “no peak was detected in the enzyme reaction solution other than for the substrate”.

Question: Which “peak detected” value [1] does the source give for isovitexin 4′-glycoside [Saponarin] here?
Answer: Its value is “no peak was detected in the enzyme reaction solution other than for the substrate”.

B1: DN134067: oboushibana-derived flavone 7-O-methyltransferase (SEQ ID NO: 34/35), expressed in E. coli (protein)
chain: MEAQEDNAYMQALELQTGIDMNMTLRAAIELGILETIVGAGEGAKLAAGEISGHLPTANPEAPNMVDRMLRLLAAHNIVTCVVEGGVDGRPECKYGAAPVSKYFTGEGEMSLARKVLLATDMVTFQSWLHLKDSVINGGNAFHTAFNMSLFDKNKVDSRFNNVFNTSMKSVSLFAINKFINTYDGFSDIQVLVDVGGGIGTALYAITSKFPHIKGINFDLPQVISTAQTSYPEMEHVSGDMFASVPKGDAILLKHVLHNWEDESCLKILKTCWNSLPYKGKVIIVESVLPKAPGVSSASKYFTCLDVIMMAHFGAKLRTIEEFKELCNNAGFSSFNATYFHTYHCIMEFTK
modifications: Commelina communis var. hortensis
Question: Which methyl group-transfer activity ([1]; substrate comparison) does the source give for B1 here?
Answer: Its methyl group-transfer activity is “most powerful methyl group-transfer activity for isovitexin”.
